Source: ChEMBL document CHEMBL3045431, “Stability of DNA upon interaction with dimethyltin dichloride” (Med Chem Res, 2007)
The source made the active and inactive calls. The rule behind the calls is not given here.

Legend:
[1] = tested on: DNA; assay: Thermal stabilization of Bos taurus (calf) thymus DNA assessed as change in melting temperature at 13.6 mM by differential scanning calometric method; format: nucleic-acid assay
[2] = tested on: DNA; assay: Binding affinity to Bos taurus (calf) thymus DNA at 11 mM by isothermal spectrophotometric titration method; format: nucleic-acid assay
[3] = Binding affinity to DNA assessed as association constant at < 2 mM by isothermal spectrophotometric titration method
[4] = tested on: DNA; assay: Binding affinity to Bos taurus (calf) thymus DNA at 13.6 mM by isothermal spectrophotometric titration method; format: nucleic-acid assay
[5] = tested on: DNA; assay: Thermal stabilization of Bos taurus (calf) thymus DNA assessed as change in melting temperature at 2 mM by differential scanning calometric method; format: nucleic-acid assay
[6] = tested on: DNA; assay: Binding affinity to Bos taurus (calf) thymus DNA at 2 mM by isothermal spectrophotometric titration method; format: nucleic-acid assay
[7] = tested on: DNA; assay: Binding affinity to Bos taurus (calf) thymus DNA at 9 mM by isothermal spectrophotometric titration method; format: nucleic-acid assay
[8] = tested on: DNA; assay: Binding affinity to Bos taurus (calf) thymus DNA at 0.5 mM by isothermal spectrophotometric titration method; format: nucleic-acid assay
[9] = Binding affinity to DNA assessed as dissociation constant at < 2 mM by isothermal spectrophotometric titration method

Tm [1]	K [2]	Ka [3]	K [4]	Activity [5]	K [6]	K [7]	K [8]	Kd [9]	Substance
70.2 °C	0.125 ×10³ /M	3.56 ×10³ /M	0.143 ×10³ /M	Active	3.53 ×10³ /M	0.123 ×10³ /M	3.59 ×10³ /M	–	[sequence]
–	–	–	–	–	–	–	–	281 µM	DICHLORODIMETHYLSTANNANE
